Experimental data taken from patent publication US20240246941A1, “SUBSTITUTED 4-(3-AMINOPROP-1-YL)AMINOQUINOLINE ANALOGS AS MODULATORS OF MELANOMA-ASSOCIATED ANTIGEN 11 UBIQUITIN LIGASE” (ST. JUDE CHILDREN'S RESEARCH HOSPITAL, INC., priority 2020, published 2024).

target: interaction between GST-MAGEA11 MHD and FAM-PCF11_4 peptide (MAGE-A11:PCF11) (Homo sapiens (Human), UniProt P43364); assay: TR-FRET dose response competition assay for disruption of MAGE-A11:PCF11 binding; settings: Dose response TR-FRET screening of nine scaffold groups against MAGE-A11:PCF11; read-out: consensus IC50
Text: TR-FRET Assays and High-throughput Screen. Terbium-anti-GST antibody, 1 M Tris pH 7.5 1 M MgCl2 and 1 M DTT were purchased from Invitrogen (Carlsbad, CA), BSA was purchased from Sigma (St. Louis, MO). Dimethyl sulfoxide (DMSO) was purchased from Fisher Scientific (Pittsburgh, PA). Black 384-well low volume plates and 384-well polypropylene compound plates were purchased from Corning Incorporated (Tewksbury, MA). The St. Jude FDA drug and Bioactive library (11,293 chemicals), Drug-like library (10,073 chemicals) and Lead-like library (10,041 chemicals) were custom assembled and purchased from commercial sources including Sigma, Microsource (Gaylordsville, CT), selleckchem (Houston, TX), ChemDiv (San Diego, CA), ChemBridge (San Diego, CA), Enamine (Monmouth Jct., NJ), and Life Chemicals (Niagara-on-the-Lake, ON, Canada). They were arrayed (10 mM in DMSO) in 384-well polypropylene compound plates with columns 1, 2, 13 and 14 empty which were reserved for controls.
The TR-FRET assay buffer with a formula of 50 mM Tris pH 7.5, 20 mM MgCl2, 0.1 mg/ml BSA and 1 mM DTT was freshly prepared before each experiment. All TR-FRET assays were performed in black 384-well plates with 20 μl/well assay volume in the TR-FRET assay buffer at room temperature (approximately 25° C.). All peptides or compounds were solubilized in DMSO. To test the competitive activity of peptides or compounds against the interaction between GST-MAGEA11 MHD and FAM-PCF11_4 peptide, 10 μl/well peptide or compound at specified concentration was dispensed into a black 384-well low volume plate, followed by 5 μl/well FAM-PCF11_4 (800 nM), 5 μl/well Tb-anti-GST (20 nM) and GST-MAGEA11 MHD (20 nM). The assay components in each well was then mixed by shaking the plate on an IKA MTS 2/4 digital microtiter plate shaker (IKA Works; Wilmington, NC, USA) at 900 RPM for 1 minute. The plate was further centrifuged in an Eppendorf 5810 centrifuge with an A-4-62 swing-bucket rotor (Eppendorf AG, Hamburg, Germany) at 201 g (1000 rpm) for 30 seconds. The plate was then incubated for 90 min with a lid to avoid light exposure to the assay components. After incubation, the fluorescent emission signals at 520 nm and 490 nm channels of individual wells were measured with a PHERAstar FS plate reader (BMG Labtech; Durham, NC, USA) by using a 340 nm excitation filter, 100 μs delay time, and 200 μs integration time. The TR-FRET fluorescence emission ratio (TR-FRET signal) for each well was presented as 10 000×520 nm/490 nm, which was used directly for curve fitting, or further converted to % Inhibition based on the respective positive and negative controls. The graphic software GraphPad Prism 4.81 (GraphPad Software; La Jolla, CA, USA) was used to generate curves and derive IC50 values of tested peptides or compounds, if applicable.
TR-FRET inhibitory activity characterization of a panel of PCF11 peptides against the interaction between GST-MAGEA11 MHD and FAM-PCF11_4 was performed as follows. In a 20 μl/well assay volume, dilutions of PCF11_1 to PCF11_8 peptides (concentrations ranged from 3.1 nM to 100 μM for peptides PCF11_4, PCF11_5, PCF11_6 and PCF11_8 in a 1-to-2 dilution pattern for 16 concentration levels, and ranged from 48.9 nM to 100 μM for peptides of PCF11_1, PCF11_2, PCF11_3 and PCF11_7 in a 1-to-2 dilution pattern for 12 concentration levels), 200 nM FAM-PCF11_4, 5 nM Tb-anti-GST and 5 nM GST-MAGEA11 were mixed together and incubated for 90 min before the TR-FRET signal for each well was measured. The final DMSO concentration was 1.1% (v/v). […] The signal of each peptide-treated well (Signalpeptide) was normalized to the positive and negative controls to derive % inhibition of the peptide at a specific concentration with equation 1. Where applicable, the % Inhibition data were fit into a Sigmoidal dose response equation to derive IC50 values.
TR-FRET screen for identifying MAGEA11 small molecule inhibitors was performed as follows.

Chain of interaction between GST-MAGEA11 MHD and FAM-PCF11_4 peptide (MAGE-A11:PCF11) (P43364 218-429): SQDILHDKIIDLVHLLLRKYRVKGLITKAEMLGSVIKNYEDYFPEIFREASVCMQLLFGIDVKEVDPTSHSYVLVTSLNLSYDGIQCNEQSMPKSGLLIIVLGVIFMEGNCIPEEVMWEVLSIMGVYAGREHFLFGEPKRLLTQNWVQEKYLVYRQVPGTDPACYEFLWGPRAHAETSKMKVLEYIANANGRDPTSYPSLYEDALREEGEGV

CCCN1C(=O)c2ccccc2NC1c1ccc(OC)c(OC)c1 (stereo not drawn) [SJ000026517-1] and CCCN1C(=O)c2ccccc2NC1c1ccc(O)c(OC)c1 (stereo not drawn) [SJ000295722-1] are the same in IC50: 69.9 µM for the first, 69.9 µM for the second.

CC(C)(C)c1ccc(C2=C(c3ccc([N+](=O)[O-])cc3)C(=O)OC2)cc1 [SJ000368097-1] and CS(=O)(=O)c1ccc(C2=C(c3ccccc3)C(=O)OC2)cc1 [SJ000285362-5] are within 1.5-fold of each other in IC50: 69.9 µM for the first, 67.6 µM for the second.

CCCCCn1c(-c2cccc(F)c2)nc2c1c(=O)[nH]c(=O)n2CCCC [SJ000460165-1] and CCCCn1c(=O)[nH]c(=O)c2c1nc(-c1cccc(F)c1)n2CC [SJ000414469-1] are the same in IC50: 69.9 µM for the first, 69.9 µM for the second.

Compared with O=S(=O)(c1ccc(Cl)cc1)c1nc(-c2ccccc2Br)oc1N1CCOCC1 [SJ000184129-1], Cc1ccc(S(=O)(=O)c2nc(-c3ccc(F)cc3)oc2N2CCOCC2)cc1 [SJ000230854-1] is 6-fold lower in IC50: 69.9 µM for the first, 11.7 µM for the second. The second is the more potent here.

O=C1c2ccccc2NC(c2ccc(Br)cc2)N1Cc1ccccc1 (stereo not drawn) [SJ000019546-2] and CCCN1C(=O)c2ccccc2NC1c1ccc(OC)c(COc2ccc([N+](=O)[O-])c(C)c2)c1 (stereo not drawn) [SJ000295745-1] are the same in IC50: 69.9 µM for the first, 69.9 µM for the second.

CN(C)CCCNC(=O)c1ccc2[nH]c3ccccc3c2c1 [SJ000123281-1] and CCn1c2ccccc2c2cc(CNC3CCCCC3)ccc21 [SJ000550865-1] are the same in IC50: 69.9 µM for the first, 69.9 µM for the second.

O=C(Cn1cnc2cc(-c3ccc(Cl)cc3)sc2c1=O)NCc1ccc(F)cc1 [SJ000444020-1] and COc1ccc(-c2cc3ncn(CC(=O)NCc4ccc(Cl)cc4)c(=O)c3s2)cc1 [SJ000457991-1] are the same in IC50: 69.9 µM for the first, 69.9 µM for the second.

Compared with COc1cccc(CNCCCNc2ccnc3cc(-c4ccc5c(c4)OCO5)ccc23)c1O [SJ000311291-1], COc1cccc(CNCCCNc2ccnc3cc(-c4ccc(C(F)(F)F)cc4)ccc23)c1O [SJ000311279-1] is 2.6-fold lower in IC50: 24.6 µM for the first, 9.52 µM for the second.

CSc1nc2cc(-c3ccccc3)sc2c(=O)n1CCN1CCOCC1 [SJ000405932-1] and CC(=O)Cn1cnc2cc(-c3ccccc3)sc2c1=O [SJ000448314-1] are the same in IC50: 69.9 µM for the first, 69.9 µM for the second.

CCCn1c(-c2ccc(OC(F)F)cc2)nc2c1c(=O)[nH]c(=O)n2Cc1ccccc1 [SJ000376621-1] and CCCn1c(-c2cc(Br)ccc2F)nc2c1c(=O)[nH]c(=O)n2Cc1ccccc1 [SJ000437843-1] are the same in IC50: 69.9 µM for the first, 69.9 µM for the second.

COC(=O)Cn1cnc2cc(-c3ccc(Cl)cc3)sc2c1=O [SJ000418500-1] and C=C(C)Cn1cnc2cc(-c3ccc(Cl)cc3)sc2c1=O [SJ000456507-1] are the same in IC50: 69.9 µM for the first, 69.9 µM for the second.

CCCCn1c(=O)[nH]c(=O)c2c1nc(-c1ccc(OCC(=O)O)cc1)n2CCC(C)C [SJ000431347-1] and C=CCOc1ccc(-c2nc3c(c(=O)[nH]c(=O)n3CCC)n2CCCC)cc1 [SJ000378878-1] are the same in IC50: 69.9 µM for the first, 69.9 µM for the second.

Compared with CC1CN(c2oc(-c3ccc([N+](=O)[O-])cc3)nc2C#N)CC(C)O1 (stereo not drawn) [SJ000478204-1], CC1CN(c2oc(-c3ccccc3F)nc2S(=O)(=O)c2ccc(F)cc2)CC(C)O1 (stereo not drawn) [SJ000329067-1] is 2.6-fold lower in IC50: 69.9 µM for the first, 27.3 µM for the second. The second is the more potent here.

CCCCCOc1ccc(NC2=C(N)C(=O)c3ccccc3C2=O)cc1 [SJ000032723-1] and CC(=O)N(C1=C(Cl)C(=O)c2ccccc2C1=O)c1ccc(F)cc1 [SJ000024947-1] are the same in IC50: 69.9 µM for the first, 69.9 µM for the second.

CCCn1c(=O)[nH]c(=O)c2c1nc(-c1ccc(NC(C)=O)cc1)n2CCN1CCOCC1 [SJ000406218-1] and COCCn1c(-c2ccc(C)cc2)nc2c1c(=O)[nH]c(=O)n2CC(C)C [SJ000421396-1] are the same in IC50: 69.9 µM for the first, 69.9 µM for the second.

Going from COc1ccc(F)cc1CNCCCNc1ccnc2cc(Cc3cc(C)cc(C)c3)ccc12 [SJ000311321-1] to COc1ccc(F)c(CNCCCNc2ccnc3cc(Cl)ccc23)c1 [SJ000521030-1], the IC50 rises from 9.04 µM to 69.9 µM (7.7-fold).

Cc1ccc(Nc2nc(N)c3ccccc3n2)cc1Cl [SJ000201287-1] and COc1ccc(C)cc1Nc1nc(N)c2ccccc2n1 [SJ000201566-1] are the same in IC50: 69.9 µM for the first, 69.9 µM for the second.

Compared with CC(C)(C)c1ccc(O)c(CNCCCNc2ccnc3cc(Cl)ccc23)c1 [SJ000311193-1], COc1cccc(CNCCCNc2ccnc3cc(Oc4ccc(C(C)(C)C)cc4)ccc23)c1O [SJ000311235-1] is 4-fold lower in IC50: 30.4 µM for the first, 7.65 µM for the second. The second is the more potent here.

Going from c1cc(CNCCCNc2ccnc3cc(-c4cccc5ccccc45)ccc23)c2c(c1)OCO2 [SJ000311276-1] to COc1ccc(CNC(=O)Cn2cnc3cc(-c4ccc(Cl)cc4)sc3c2=O)cc1 [SJ000457620-1], the IC50 rises from 31.2 µM to 69.9 µM (2.2-fold).

CCCCOC(=O)Cn1cnc2cc(-c3ccc(OC)cc3)sc2c1=O [SJ000399852-1] and Cc1cc(-c2nc3c(c(=O)[nH]c(=O)n3C)n2C)ccc1Cl [SJ000517919-1] are the same in IC50: 69.9 µM for the first, 69.9 µM for the second.

same assay, conditions: Table 5, dose response TR-FRET screening of 59 quinoline compounds against MAGE-A11:PCF11; read-out: TR-FRET IC50

Clc1ccc2c(NCCCCN(Cc3ccccc3)Cc3csc4ccccc34)ccnc2c1 [SJ000520446-1] and Clc1ccc(CN(CCCCNc2ccnc3cc(Cl)ccc23)Cc2ccccc2)c(Cl)c1 [SJ000361207-2] cannot be ordered by IC50: greater than 70 µM for the first, greater than 70 µM for the second.

First: Clc1ccc(Oc2ccc3c(NCCCNCc4ccco4)ccnc3c2)cc1 [SJ000311226-1]
Second: Clc1cccc(Cl)c1Cc1ccc2c(NCCCNCc3ccco3)ccnc2c1 [SJ000311314-1]
The IC50 of the first is higher: greater than 70 µM for the first, 38.4 µM for the second. The second is the more potent here.

Going from c1ccc(Cc2ccc3c(NCCCNCc4ccco4)ccnc3c2)cc1 [SJ000311306-2] to CCCN(CCNc1ccnc2cc(C(F)(F)F)ccc12)Cc1ccc[nH]1 [SJ000361255-1], the IC50 rises from 32.2 µM to greater than 70 µM. The first is the more potent here.

same assay, conditions: Table 8, representative compounds; read-out: TR-FRET IC50

c1cc(CNCCCNc2ccnc3cc(C4CCCCC4)ccc23)c2c(c1)OCO2 [SJ000311264] and c1cc(CNCCCNc2ccnc3cc(CC4CCCC4)ccc23)c2c(c1)OCO2 [SJ000311252] are within 1.5-fold of each other in IC50: 23.7 µM for the first, 16 µM for the second.

First: COc1cc(Cc2ccc3c(NCCCNCc4cccc(OC)c4O)ccnc3c2)cc(OC)c1 [SJ000311311]
Second: COc1cccc(CNCCCNc2ccnc3cc(Cc4ccc(F)cc4Cl)ccc23)c1O [SJ000311323]
The IC50 of the first is 1.9-fold higher: 33.6 µM for the first, 17.6 µM for the second.

COc1ccc(F)cc1CNCCCNc1ccnc2cc(Oc3ccc(C(C)(C)C)cc3)ccc12 [SJ000311237] and COc1ccc(F)cc1CNCCCNc1ccnc2cc(Cc3cc(C)cc(C)c3)ccc12 [SJ000311321] are within 1.5-fold of each other in IC50: 6.29 µM for the first, 9.04 µM for the second.

COc1cccc(F)c1CNCCCNc1ccnc2cc(C(F)(F)F)ccc12 [SJ000521051] and COc1ccc(C(F)(F)F)cc1CNCCCNc1ccnc2cc(C(F)(F)F)ccc12 [SJ000521064] are within 1.5-fold of each other in IC50: 69.9 µM for the first, 69.1 µM for the second.

Going from c1cc(CNCCCNc2ccnc3cc(-c4cccc5ccccc45)ccc23)c2c(c1)OCO2 [SJ000311276] to FC(F)(F)c1cc(-c2ccc3c(NCCCNCc4cccc5c4OCO5)ccnc3c2)cc(C(F)(F)F)c1 [SJ000311272], the IC50 falls from 31.2 µM to 9.02 µM (3.5-fold). The second is the more potent here.

Oc1ccc(Br)c(CNCCCNc2ccnc3cc(Cl)ccc23)c1 [SJ000311194] and COc1ccc(CNCCCNc2ccnc3cc(Cl)ccc23)cc1 [SJ000523059] are the same in IC50: 69.9 µM for the first, 69.9 µM for the second.

Compared with Fc1c(F)c(F)c(CNCCCNC2CCNC3(Cl)CCC23)c(F)c1F (stereo not drawn) [SJ000520910], CCc1ccc(OCc2ccccc2C(=O)Nc2ccc3nc(C)cc(N)c3c2)cc1 [SJ000855285] is 7.5-fold lower in IC50: 69.9 µM for the first, 9.29 µM for the second. The second is the more potent here.
